Results from patent EP0366632A1, “Alternative energy substrates” (priority 1988, dated 1990).

Tests used:
[1] = tested on: Asperg. niger ATCC 16404 (mould); test: Microorganism count in 2% ester emulsions (Example 12, Table 1); type: cell-based; settings: 2% emulsion, phosphate buffer pH=7.0, +37°C, Additive/ml 7943
Experimental: (§1) In addition to ester, the emulsions also comprised egg-yolk phospholipid 1,2% and sterile water. The emulsions were prepared aseptically, by emulsifying sterile-filtered ester with a sterilized dispersion of egg-yolk phospholipids. Aliquots of these emulsions were diluted with a phosphate buffer (0.01 M, pH=7.0) in the proportions of 1 and 10 respectively, so as to obtain 2-percent emulsions. Various microorganisms according to Table 1 below were added to these emulsions. The samples were then incubated at +37°C for 20 hours. Counting of the number of microorganisms was started after 2 and 20 hours, in the manner described in microbiological literature. Checks were run on a pure phosphate buffer with additives of the same microorganisms as earlier, in parallel with the aforesaid experiments, while checks were run in Tryptone Soya broth (TSB) with additions of the same microorganisms, in order to ascertain whether or not the microorganisms could survive, i.e. could grow under the ideal conditions. […]

[2] = tested on: Cand. albicans ATCC 10231 (yeast); test: as above; type: cell-based; settings: 2% emulsion, phosphate buffer pH=7.0, +37°C, Additive/ml 6310
Experimental: as §1

Cand. parapsil. (yeast) = test: as above; type: cell-based; settings: 2% emulsion, phosphate buffer pH=7.0, +37°C, Additive/ml 5012
Experimental: as §1

E. coli ATCC 8739 = test: as above; type: cell-based; settings: 2% emulsion, phosphate buffer pH=7.0, +37°C, Additive/ml 6310
Experimental: as §1

Enter. cloacae = test: as above; type: cell-based; settings: 2% emulsion, phosphate buffer pH=7.0, +37°C, Additive/ml 1585
Experimental: as §1

Klebs. pneum. ATCC 25955 = test: as above; type: cell-based; settings: 2% emulsion, phosphate buffer pH=7.0, +37°C, Additive/ml 1995
Experimental: as §1

Penicillium sp. (mould) = test: as above; type: cell-based; settings: 2% emulsion, phosphate buffer pH=7.0, +37°C, Additive/ml 3162
Experimental: as §1

Proteus vulg. ATCC 13315 = test: as above; type: cell-based; settings: 2% emulsion, phosphate buffer pH=7.0, +37°C, Additive/ml 1000
Experimental: as §1

[3] = tested on: Ps. aeruginosa ATCC 19429; test: as above; type: cell-based; settings: 2% emulsion, phosphate buffer pH=7.0, +37°C, Additive/ml 7943
Experimental: as §1

Serr. maresc. ATCC 14756 = test: as above; type: cell-based; settings: 2% emulsion, phosphate buffer pH=7.0, +37°C, Additive/ml 6310
Experimental: as §1

Staf. aureus ATCC 6535 = test: as above; type: cell-based; settings: 2% emulsion, phosphate buffer pH=7.0, +37°C, Additive/ml 5012
Experimental: as §1

Staf. epiderm. = test: as above; type: cell-based; settings: 2% emulsion, phosphate buffer pH=7.0, +37°C, Additive/ml 6310
Experimental: as §1

Ulocladium sp. (mould) = test: as above; type: cell-based; settings: 2% emulsion, phosphate buffer pH=7.0, +37°C, Additive/ml 2512
Experimental: as §1

[4] = tested on: Candida albicans ATCC 10231; test: Microorganism count in 2% and 0.2% ester emulsions (Example 15); type: cell-based; settings: after 20 hours
Experimental: The emulsions contained egg-yolk phospholipid 1,2% and sterile water, in addition to ester. The emulsions were prepared aseptically, by emulsifying sterile-filtered ester with a sterilized dispersion of egg-yolk phospholipids.
Aliquots of these emulsions were diluted with phosphate buffer (0.01 M, pH=7.0) in the proportions of 1 and 10 and 1 and 100 of respective emulsions. Candida albicans ATCC 10231 was added to the emulsions. The samples were then incubated at +37°C for 20 hours. The microorganism count was carried out after […], 2 and 20 hours, in the manner described in microbiological literature. Parallel with the above tests, a check was made on phospholipide solution 1,2% and TSB (Tryptone soya broth) with additions Candida albicans ATCC 10231. The latter substrate was tested to ascertain whether or not the microorganisms were viable. After 20 hours, the microorganism count/ml in TSB was 10⁷, and in the phospholipid solution 10⁴. The starting concentration was about 10⁴. After 1-5 minutes, the microorganism count per […] of the tests containing 4-methyl-3-oxo-pentanoic acid ethyl ester with concentrations of 2% and 0.2% was 10⁴ and 10⁴ respectively. After 2 hours, the microorganism count was 10² and 10⁴ respectively, and after 20 hours 0 and 10⁴. […] After 20 hours, the count was 0 and 10² respectively.

[5] = Cold storage of fat emulsion (Intralipid) with ester admixture: visual inspection, pH, mean particle size; type: physicochemical
[6] = Total parenteral nutrition (TPN) with ester as energy substitute in rats; settings: 9 days; for toxicity at the dosages tested: 2 g/kg body weight and 24 hours; for average growth per day during the whole of the test period: ester 2 g/kg body weight and 24 hours in place of equivalent glucose energy
Experimental: Sprague-Dawley male rats weighing 180-190 g were sur­gically fitted with a central vein catheter protected by a saddle (Roos et al, 1981). Total parenteral nutrition (TPN) was administered in accordance with the following standard formula: Fat: 8 g/kg body weight and 24 hours Nitrogen: 1,2 g/kg body weight and 24 hours Total energy supplied: 1257 kJ/kg body weight and 24 hours Liquid: 300 ml/kg body weight and 24 hours The glucose to fat ratio was 70-30 energy percent. The energy percentage obtained from the energy substitutes during the test period corresponded to about 5% NPC. The TPN-mixture was obtained by mixing Vamin^R 14 (a solution of essential and non-essential amino acids for paren­teral nutrient administration, retailed by KabiVitrum AB) with no electrolytes, glucose solution 50% and Intralipid^R 20% in suitable proportions and adding adequate quantities of electrolytes, trace minerals and vitamins. Subsequent to infusing the rats continuously for one week (20 hours/day), the animals were divided randomly into three groups, with 6 animals in each group. The animals of one group were administered with the same TPN-formula as that previously mentioned (the reference group). […] The compounds were given in a dosage of 2 g/kg body weight and 24 hours in a yield corres­ponding to equivalent glucose energy quantities. In other respects, the TPN-program or formula was the same as that for the reference group. The experiment was then continued for a further 9 days, during which the weights of the animals were recorded daily and urine collected and frozen. At the end of the test period, the rats were killed by heart puncture while under a pentobarbital anesthetic and an autopsy was performed on the rat carcasses with microscopic examination. The body organs were sent to a laboratory for pathological assay.

| Structure (SMILES) | number of microorganisms ([1]; 2 hrs) | number of microorganisms ([1]; 20 hrs) | number of microorganisms ([2]; 2 hrs) | number of microorganisms ([2]; 20 hrs) | number of microorganisms (Cand. parapsil. (yeast); 2 hrs) | number of microorganisms (Cand. parapsil. (yeast); 20 hrs) | number of microorganisms (E. coli ATCC 8739; 2 hrs) | number of microorganisms (E. coli ATCC 8739; 20 hrs) | number of microorganisms (Enter. cloacae; 2 hrs) | number of microorganisms (Enter. cloacae; 20 hrs) | number of microorganisms (Klebs. pneum. ATCC 25955; 2 hrs) | number of microorganisms (Klebs. pneum. ATCC 25955; 20 hrs) | number of microorganisms (Penicillium sp. (mould); 2 hrs) | number of microorganisms (Penicillium sp. (mould); 20 hrs) | number of microorganisms (Proteus vulg. ATCC 13315; 2 hrs) | number of microorganisms (Proteus vulg. ATCC 13315; 20 hrs) | number of microorganisms ([3]; 2 hrs) | number of microorganisms ([3]; 20 hrs) | number of microorganisms (Serr. maresc. ATCC 14756; 2 hrs) | number of microorganisms (Serr. maresc. ATCC 14756; 20 hrs) | further results |
| --- | --- | --- | --- | --- | --- | --- | --- | --- | --- | --- | --- | --- | --- | --- | --- | --- | --- | --- | --- | --- | --- |
| CCOC(=O)CC(=O)CC(C)C [5-methyl-3-oxo-hexanoic acid ethyl ester] | 5012 | 5012 | 1995 | 0 | 3162 | 0 | 0 | 0 | 0 | 0 | 0 | 0 | 3981 | 316 | 0 | 0 | 0 | 0 | 0 | 0 | number of microorganisms (Staf. aureus ATCC 6535; 2 hrs): 0; number of microorganisms (Staf. aureus ATCC 6535; 20 hrs): 0; number of microorganisms (Staf. epiderm.; 2 hrs): 794; number of microorganisms (Staf. epiderm.; 20 hrs): 25; number of microorganisms (Ulocladium sp. (mould); 2 hrs): 5012; number of microorganisms (Ulocladium sp. (mould); 20 hrs): 0; microorganism count [4]: 0 per ml; emulsion stability, daily visual inspection ([5]; Example 33: pure ester in 20 percent emulsion, 5%, +5°C, 5 days): unstable; toxicity at the dosages tested [6]: non-toxic; average growth per day during the whole of the test period [6]: 2.8 ± 0.2 g |
| CCOC(=O)CC(=O)C(C)C [4-methyl-3-oxo-pentanoic acid ethyl ester] | 3981 | 1000 | 200 | 0 | 1000 | 0 | 0 | 0 | 0 | 0 | 0 | 0 | 5012 | 0 | 0 | 0 | 0 | 0 | 0 | 0 | number of microorganisms (Staf. aureus ATCC 6535; 2 hrs): 0; number of microorganisms (Staf. aureus ATCC 6535; 20 hrs): 0; number of microorganisms (Staf. epiderm.; 2 hrs): 0; number of microorganisms (Staf. epiderm.; 20 hrs): 0; number of microorganisms (Ulocladium sp. (mould); 2 hrs): 3981; number of microorganisms (Ulocladium sp. (mould); 20 hrs): 0; microorganism count [4]: 0 per ml; emulsion quality (oil droplets, creaming, oil separation), daily inspection ([5]; Example 5: mother concentrate in Intralipid 10%, 0.3% addition, +5°C, 5 days): had no affect on the quality; pH ([5]; Example 34: 20 percent fat emulsion, 3% emulsion, end of 5-day period (reference emulsion pH=7.9)): 5.6; emulsion stability, daily visual inspection ([5]; Example 34: pure ester in 20 percent fat emulsion, 0.1% admixture, +5°C, 5 days): remained stable over the whole of the test period; emulsion stability, daily visual inspection ([5]; Example 34: pure ester in 20 percent fat emulsion, 3% admixture, +5°C, 5 days): remained stable for four days; toxicity at the dosages tested [6]: non-toxic; average growth per day during the whole of the test period [6]: 3.7 ± 0.8 g |
